These molecules were tested against T1, TvaCA1 (Trichomonas vaginalis, UniProt A2ENQ8) (assay: stopped-flow CO2 hydrase assay). Details: read-out: KI^a (nM) / TvaCA1^c.
T1 construct: gene TVAG_005270; recombinant from E. coli BL21 Star (DE3), Ni2+-NTA purified; beta-CA homodimer with two active sites
T1 sequence (A2ENQ8 1-182): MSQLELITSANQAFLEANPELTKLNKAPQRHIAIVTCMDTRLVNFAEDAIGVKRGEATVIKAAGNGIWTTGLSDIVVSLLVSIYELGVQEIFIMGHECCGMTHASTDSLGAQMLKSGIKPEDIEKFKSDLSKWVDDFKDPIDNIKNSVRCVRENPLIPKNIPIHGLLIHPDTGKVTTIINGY
Assay type: biochemical

Structure (SMILES) | Ki [nM]
CCN[C@H]1CN(CCCOC)S(=O)(=O)c2sc(S(N)(=O)=O)cc21 [BRZ, brinzolamide] | > 50000
NS(=O)(=O)c1nnc(NS(=O)(=O)c2ccccc2)s1 [BZA, benzolamide] | > 50000
NS(=O)(=O)c1cc(Cl)c(Cl)c(S(N)(=O)=O)c1 [DCP, dichlorophenamide] | > 50000
CC(=O)N=c1sc(S(N)(=O)=O)nn1C [MZA, methazolamide] | 3830
CC1(C)O[C@@H]2[C@@H](CO[C@@]3(COS(N)(=O)=O)OC(C)(C)O[C@@H]23)O1 [TPM, topiramate] | > 50000
NS(=O)(=O)Cc1noc2ccccc12 [ZNS, zonisamide] | > 50000
Nc1cccc(S(N)(=O)=O)c1 [compound 1, 1] | 3250
Nc1ccc(S(N)(=O)=O)cc1 [compound 2, 2] | 4740
NS(=O)(=O)c1cccc(S(N)(=O)=O)c1 [compound 3, 3] | 3560
Cc1ccc(S(N)(=O)=O)cc1 [compound 4, 4] | 3600
Nc1ccc(S(N)(=O)=O)cc1F [compound 7, 7] | 4280
NS(=O)(=O)c1cc(Cl)cc(Cl)c1O [compound 10, 10] | 4540
Nc1nnc(S(N)(=O)=O)s1 [compound 13, 13] | 1890
Cn1nc(S(N)(=O)=O)sc1=N [compound 14, 14] | 3990
NS(=O)(=O)c1ccc(O)cc1 [compound 15, 15] | 2030
Nc1nccc(Nc2ccc(S(N)(=O)=O)cc2)n1 [compound 19, 19] | 4530
NS(=O)(=O)c1ccc(CCNS(=O)(=O)c2ccc([N+](=O)[O-])cc2CO)cc1 [compound 21, 21] | 3450

The molecules below were run against T1, TvaCA1 (assay: biochemical). Details: inhibitor; read-out: KI^a (nM) / TvaCA1^c / β.
Set-up: stopped-flow CO2 hydration assay, phenol red at 557 nm, TRIS pH 8.3, 15 min preincubation, KI
Protocol: An Applied Photophysics stopped-flow instrument was used for assaying the CA catalysed CO2 hydration activity. Phenol red (at a concentration of 0.2 mM) was used as an indicator, working at the absorbance maximum of 557 nm, with 10 − 20 mM HEPES (pH 7.5, for α-CAs) or TRIS (pH 8.3 for β-CAs) as buffers, and 20 mM NaClO4 (for maintaining constant the ionic strength), following the initial rates of the CA-catalysed CO2 hydration reaction for a period of 10–100 s. The CO2 concentrations ranged from 1.7 to 17 mM for the determination of the kinetic parameters and inhibition constants. For each inhibitor, at least six traces of the initial 5–10% of the reaction were used for determining the initial velocity. The uncatalyzed rates were determined in the same manner and subtracted from the total observed rates. Stock solutions of inhibitors (10 mM) and dilutions up to 0.01 nM were prepared in distilled-deionised water. Inhibitor and enzyme solutions of concentrations ranging between 5 and 12 nM were preincubated together for 15 min at room temperature prior to assay, in order to allow for the formation of the enzyme–inhibitor complex. The inhibition constants were obtained by non-linear least-squares methods using PRISM 3 as reported earlier, and represent the mean from at least three different determinations. TvaCA1 was a recombinant enzyme obtained in-house as described earlier. The enzyme was recombinantly produced in E. coli (OneShot® BL21 Star™ (DE3) Chemically Competent Cells, #C601003, Thermo Fisher Scientific, Finland). The enzyme was purified using Ni^2+-NTA agarose affinity chromatography resin (Macherey-Nagel GmbH Co., Germany). More detailed information concerning the recombinant protein production and its kinetic and structural characterisation can be found in our previous article. The presence of the correct protein in the isolated protein fraction was confirmed by tandem mass spectrometry (MS/MS).

Structure (SMILES) | Ki [nM]
Nc1ccc(S(=O)(=O)NCc2ccc(S(N)(=O)=O)cc2)cc1 [compound 23] | > 50000

Same assay, conditions: read-out: KI^a (nM) / TvaCA1^c / β

Structure (SMILES) | Ki [nM]
Cc1ccc(-c2cc(C(F)(F)F)nn2-c2ccc(S(N)(=O)=O)cc2)cc1 [CLX] | > 50000
NS(=O)(=O)c1cc2c(cc1Cl)NCNS2(=O)=O [HCT] | > 50000
NS(=O)(=O)c1ccc(S(=O)(=O)Nc2cccc3c(Cl)c[nH]c23)cc1 [IND] | > 50000
O=C1NS(=O)(=O)c2ccccc21 [SAC] | > 50000
NS(=O)(=O)c1ccc(N2CCCCS2(=O)=O)cc1 [SLT] | > 50000
Cc1onc(-c2ccccc2)c1-c1ccc(S(N)(=O)=O)cc1 [VLX] | > 50000
NCc1ccc(S(N)(=O)=O)cc1 [compound 5] | > 50000
NCCc1ccc(S(N)(=O)=O)cc1 [compound 6] | > 50000
Nc1ccc(S(N)(=O)=O)cc1Cl [compound 8] | > 50000
Nc1ccc(S(N)(=O)=O)cc1Br [compound 9] | > 50000
Nc1cc(C(F)(F)F)c(S(N)(=O)=O)cc1S(N)(=O)=O [compound 11] | > 50000
Nc1cc(Cl)c(S(N)(=O)=O)cc1S(N)(=O)=O [compound 12] | > 50000
NS(=O)(=O)c1ccc(CO)cc1 [compound 16] | > 50000
NS(=O)(=O)c1ccc(CCO)cc1 [compound 17] | > 50000
NS(=O)(=O)c1ccc(C(=O)O)cc1 [compound 18] | > 50000
Nc1ccc(S(=O)(=O)Nc2nnc(S(N)(=O)=O)s2)cc1 [compound 20] | > 50000
Nc1ccc(S(=O)(=O)Nc2ccc(S(N)(=O)=O)cc2)cc1 [compound 22] | > 50000
